Source: the supplement of paper PMC7394473

Key:
Settings in all cases: 72 h
[1] = system: U2OS; assay: GR50 (concentration giving GR = 0.5)
Protocol: (§1)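 U2OS cells treated with full dose titrations of drug; live and dead cells counted by STACK microscopy (mKate2 nuclei, SYTOX Green) at 72 h, biological triplicates. GR and FV dose responses were fitted with 4-parameter logistic models (GR lower bound -1). GRADE (0-100) is the rescaled angle of a linear fit of FV versus GR at doses with GR >= 0, giving the percentage of the response due to cell death.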

[2] = system: U2OS; assay: fractional viability (live cells / total cells); higher = less cell death
Protocol: (§2)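 U2OS::Nuc-mKate2 cells seeded in 96-well plates and treated with eight- to ten-point half-log or log dilutions of drug in the presence of 50 nM SYTOX Green. Live (mKate2+) and dead (SYTOX+) cells were counted by IncuCyte STACK live-cell microscopy at 72 h; biological triplicates. GR is the normalised growth-rate inhibition value (Hafner 2016; 1 = untreated growth, <0 = population shrinking). FV is live/(live+dead) cells, not normalised.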

[3] = system: U2OS; assay: FV IC50 (concentration giving fractional viability 0.5); higher = less potent killing
Protocol: as §1

[4] = system: U2OS; assay: drug GRADE (percent of response due to cell death) (% (0-100)); higher = more death-driven response
Protocol: as §1

[5] = system: U2OS; assay: GRmin (fitted minimal GR value at highest effect) (GR value (dimensionless)); higher = less efficacious
Protocol: as §1

[6] = system: U2OS; assay: normalized growth rate inhibition value (GR) relative to untreated cells (GR value (dimensionless, 1 = untreated growth)); higher = less growth inhibition
Protocol: as §2

CC(=O)O[C@H]1C(=O)[C@@]2(C)[C@H]([C@H](OC(=O)c3ccccc3)[C@]3(O)C[C@H](OC(=O)[C@H](O)[C@@H](NC(=O)c4ccccc4)c4ccccc4)C(C)=C1C3(C)C)[C@]1(OC(C)=O)CO[C@@H]1C[C@@H]2O [Taxol]
Settings	FV IC50 [nM]	GR50 [µM]	GRmin	drug GRADE
[1]	–	0.0907	–	–
[3]	577	–	–	–
[4]	–	–	–	75.6
[5]	–	–	0.104	–

Settings	fractional viability, [2]	normalized growth rate inhibition value, [6]
0.000100578 µM	0.991	1.13
0.000317827 µM	0.991	1.2
0.00100433 µM	0.991	1.23
0.00317369 µM	0.988	1.14
0.0100289 µM	0.98	1.06
0.0316912 µM	0.897	0.813
0.100144 µM	0.759	0.461
0.316456 µM	0.591	0.211
1 µM	0.44	0.0877

O=C(NCCCNc1nc(Nc2cccc(NC(=O)N3CCCC3)c2)ncc1I)c1cccs1 [BX795]
Settings	FV IC50 [nM]	GR50 [µM]	GRmin	drug GRADE
[1]	–	1.46	–	–
[3]	11600	–	–	–
[4]	–	–	–	34.3
[5]	–	–	-0.438	–

Settings	fractional viability, [2]	normalized growth rate inhibition value, [6]
0.01 µM	0.982	0.987
0.0316 µM	0.975	1.11
0.1 µM	0.974	0.954
0.316 µM	0.971	1.01
1 µM	0.94	0.723
3.16 µM	0.716	-0.0493
10 µM	0.661	-0.146
31.6 µM	0.102	-0.574

COC(=O)c1ccc2c(c1)NC(=O)/C2=C(\Nc1ccc(N(C)C(=O)CN2CCN(C)CC2)cc1)c1ccccc1 [Bibf-1120]
Settings	FV IC50 [nM]	GR50 [µM]	GRmin	drug GRADE
[1]	–	0.845	–	–
[3]	1480	–	–	–
[4]	–	–	–	50.6
[5]	–	–	-0.805	–

Settings	fractional viability, [2]	normalized growth rate inhibition value, [6]
0.01 µM	0.981	1.08
0.0316 µM	0.975	1.04
0.1 µM	0.974	0.935
0.316 µM	0.947	0.813
1 µM	0.758	0.427
3.16 µM	0.092	-0.468
10 µM	0.00465	-0.767
31.6 µM	0.00201	-0.767

CNc1ccc2oc(C[C@H]3O[C@@]4(CC[C@H]3C)O[C@H]([C@H](C)C(=O)c3ccc[nH]3)[C@H](C)C[C@H]4C)nc2c1C(=O)O
Settings	FV IC50 [nM]	GR50 [µM]	drug GRADE
[1]	–	1.69	–
[3]	8330	–	–
[4]	–	–	23.9

Settings	fractional viability, [2]	normalized growth rate inhibition value, [6]
0.01 µM	0.982	1.02
0.0316 µM	0.983	1.01
0.1 µM	0.976	0.913
0.316 µM	0.97	0.846
1 µM	0.959	0.612
3.16 µM	0.848	0.31
10 µM	0.418	-0.171
31.6 µM	0.0921	-0.602

COc1cc2c(Oc3ccc(NC(=O)C4(C(=O)Nc5ccc(F)cc5)CC4)cc3F)ccnc2cc1OCCCN1CCOCC1 [Foretinib]
Settings	FV IC50 [nM]	GR50 [µM]	GRmin	drug GRADE
[1]	–	0.138	–	–
[3]	864	–	–	–
[4]	–	–	–	39.7
[5]	–	–	-0.837	–

Settings	fractional viability, [2]	normalized growth rate inhibition value, [6]
0.01 µM	0.966	0.909
0.0316 µM	0.963	0.791
0.1 µM	0.941	0.766
0.316 µM	0.689	-0.079
1 µM	0.553	-0.199
3.16 µM	0.0154	-0.831
10 µM	0	-0.93
31.6 µM	0.0267	-0.682

COC(=O)c1ccc([C@H]2c3[nH]c4ccccc4c3C[C@H](C(=O)OC)N2C(=O)CCl)cc1 [RSL3]
Settings	FV IC50 [nM]	GR50 [µM]	GRmin	drug GRADE
[1]	–	1.58	–	–
[3]	3550	–	–	–
[4]	–	–	–	54.5
[5]	–	–	-0.866	–

Settings	fractional viability, [2]	normalized growth rate inhibition value, [6]
0.01 µM	0.983	1.05
0.0316 µM	0.976	0.96
0.1 µM	0.977	0.977
0.316 µM	0.974	0.999
1 µM	0.956	0.792
3.16 µM	0.566	-0.133
10 µM	0.0831	-0.646
31.6 µM	0.00106	-0.916

CC(C)C[C@H](NC(=O)[C@H](Cc1ccccc1)NC(=O)c1cnccn1)B(O)O [Bortezomib]
Settings	FV IC50 [nM]	GR50 [µM]	GRmin	drug GRADE
[1]	–	0.0115	–	–
[3]	29.4	–	–	–
[4]	–	–	–	17.4
[5]	–	–	-0.899	–

Settings	fractional viability, [2]	normalized growth rate inhibition value, [6]
0.01 µM	0.919	0.572
0.0316 µM	0.432	-0.293
0.1 µM	0.00995	-0.811
0.316 µM	0.00177	-0.912
1 µM	0.00348	-0.874
3.16 µM	0.00249	-0.887
10 µM	0.00121	-0.913
31.6 µM	0.000942	-0.902

NC(=O)Nc1cc(-c2cccc(F)c2)sc1C(=O)N[C@H]1CCCNC1 [AZD7762]
Settings	FV IC50 [nM]	GR50 [µM]	GRmin	drug GRADE
[1]	–	0.11	–	–
[3]	510	–	–	–
[4]	–	–	–	20
[5]	–	–	-0.614	–

Settings	fractional viability, [2]	normalized growth rate inhibition value, [6]
0.00100578 µM	0.991	1.04
0.00317827 µM	0.992	1.04
0.0100433 µM	0.992	1.19
0.0317369 µM	0.988	1.12
0.100289 µM	0.894	0.423
0.316912 µM	0.548	-0.126
1.00144 µM	0.398	-0.318
3.16456 µM	0.0972	-0.622
10 µM	0.0629	-0.718
